# Structures can show the parent of a compound that is named as a salt.
# Legend:
# [1] = Dissolution studies using USP Apparatus II, single vs multiple doses; type: physicochemical; conditions: Type A + Type C granules in capsule, 250 ml medium pH 1.6, 10, 30, 60, 120 minutes
# [2] = Binding studies using USP Apparatus I (naloxone to ion exchange polymer); type: physicochemical; conditions: 1:1 molar naloxone:Amberlite IRP64, 500 mL 0.1 N HCl / 5 mM phosphate buffer pH 6.8
# Experimental: The following experiment was done. • 1. Based on the 1:1 molar ratio of naloxone:Amberlite™ IRP64, take the required quantity of naloxone and Amberlite™ IRP64 blend in a capsule and add it to 500 mL of the medium (0.1 N HCl/5 mM Phosphate buffer, pH 6.8). • 2. Withdraw dissolution samples at 10, 30 and 60 mins. • 3. Centrifuge the samples at 3000 rpm for 10 mins and filter through fritted filter ([…]) to get the supernatant for analysis. The results are illustrated in FIG. 9.
Compound,"percentage of drug released, multiple doses versus single dose [1]","percentage of naloxone hydrochloride bonded to ion exchange polymer, multiple doses versus single dose [2]"
COc1ccc2c3c1O[C@H]1C(=O)CC[C@@]4(O)[C@@H](C2)N(C)CC[C@]314.Cl [oxycodone hydrochloride],drastically reduced,–
C=CCN1CC[C@]23c4c5ccc(O)c4O[C@H]2C(=O)CC[C@@]3(O)[C@H]1C5 [naloxone hydrochloride],–,drastically increases

# Reference: US10632113B2, “Abuse-resistant drug formulations with built-in overdose protection” (KASHIV BIOSCIENCES, LLC, priority 2014, dated 2020)
